Reference: patent publication US20250235543A1, “MODIFIED PROTEINS AND PROTEIN DEGRADERS” (Cullgen (Shanghai), Inc., priority 2021, published 2025)
Like-named read-outs stand apart in the source and are kept apart here.

Assays:
cyclin D1 = test: Cyclin D1 percentage degradation in Calu-1 cells (immunoblotting); assay type: cell-based; conditions: 16 hours
Method in brief: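 Cyclin D1 degradation was assessed by western blot. Clarified lysates, obtained by RIPA lysis with inhibitors and centrifugation at 13,000 rpm, were normalized by BCA protein assay and separated by SDS-PAGE. Bands were detected with Western ECL Substrate on a Bio-Rad ChemiDoc MP Imaging system and quantified in Image Lab software to derive percentage degradation.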

CDK4 = target: T1, CDK4 (Homo sapiens, UniProt P11802); test: CDK4 percentage degradation in Calu-1 cells (immunoblotting); assay type: cell-based; conditions: for inhibition at 0.2 µM: read-out: CDK4 Degradation (200 nM)
T1 construct: endogenous in cells; host or cells: Calu-1
Method in brief: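 CDK4 degradation was measured by immunoblotting. Cells were washed in cold PBS and lysed in RIPA buffer with inhibitors for 30 min at 4° C., then spun at 13,000 rpm to clear. After BCA protein determination, lysates were heated at 99° C. for 5 min in Laemmli buffer, resolved on SDS-PAGE, imaged on a ChemiDoc MP with ECL substrate, and band intensities quantified.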

T1 sequence (P11802 2-303 limits assumed): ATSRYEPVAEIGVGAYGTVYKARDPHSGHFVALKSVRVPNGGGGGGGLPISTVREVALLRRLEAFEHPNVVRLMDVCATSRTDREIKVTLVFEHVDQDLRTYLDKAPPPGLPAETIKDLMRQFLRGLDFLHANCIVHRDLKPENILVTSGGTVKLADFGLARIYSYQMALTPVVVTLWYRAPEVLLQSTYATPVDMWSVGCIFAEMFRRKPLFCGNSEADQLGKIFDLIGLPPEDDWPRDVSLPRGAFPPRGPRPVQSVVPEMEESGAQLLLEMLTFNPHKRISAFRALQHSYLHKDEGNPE
T1 sequence (P24385 whole entry partner): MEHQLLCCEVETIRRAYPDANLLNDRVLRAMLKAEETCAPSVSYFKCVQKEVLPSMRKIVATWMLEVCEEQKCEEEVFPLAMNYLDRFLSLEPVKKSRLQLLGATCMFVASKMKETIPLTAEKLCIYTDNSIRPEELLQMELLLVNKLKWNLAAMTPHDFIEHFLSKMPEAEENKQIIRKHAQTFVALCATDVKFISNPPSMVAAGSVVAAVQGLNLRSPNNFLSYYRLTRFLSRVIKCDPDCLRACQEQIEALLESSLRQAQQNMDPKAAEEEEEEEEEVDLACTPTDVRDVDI
T1 sequence (Q16531 2-1140 limits assumed, further chain): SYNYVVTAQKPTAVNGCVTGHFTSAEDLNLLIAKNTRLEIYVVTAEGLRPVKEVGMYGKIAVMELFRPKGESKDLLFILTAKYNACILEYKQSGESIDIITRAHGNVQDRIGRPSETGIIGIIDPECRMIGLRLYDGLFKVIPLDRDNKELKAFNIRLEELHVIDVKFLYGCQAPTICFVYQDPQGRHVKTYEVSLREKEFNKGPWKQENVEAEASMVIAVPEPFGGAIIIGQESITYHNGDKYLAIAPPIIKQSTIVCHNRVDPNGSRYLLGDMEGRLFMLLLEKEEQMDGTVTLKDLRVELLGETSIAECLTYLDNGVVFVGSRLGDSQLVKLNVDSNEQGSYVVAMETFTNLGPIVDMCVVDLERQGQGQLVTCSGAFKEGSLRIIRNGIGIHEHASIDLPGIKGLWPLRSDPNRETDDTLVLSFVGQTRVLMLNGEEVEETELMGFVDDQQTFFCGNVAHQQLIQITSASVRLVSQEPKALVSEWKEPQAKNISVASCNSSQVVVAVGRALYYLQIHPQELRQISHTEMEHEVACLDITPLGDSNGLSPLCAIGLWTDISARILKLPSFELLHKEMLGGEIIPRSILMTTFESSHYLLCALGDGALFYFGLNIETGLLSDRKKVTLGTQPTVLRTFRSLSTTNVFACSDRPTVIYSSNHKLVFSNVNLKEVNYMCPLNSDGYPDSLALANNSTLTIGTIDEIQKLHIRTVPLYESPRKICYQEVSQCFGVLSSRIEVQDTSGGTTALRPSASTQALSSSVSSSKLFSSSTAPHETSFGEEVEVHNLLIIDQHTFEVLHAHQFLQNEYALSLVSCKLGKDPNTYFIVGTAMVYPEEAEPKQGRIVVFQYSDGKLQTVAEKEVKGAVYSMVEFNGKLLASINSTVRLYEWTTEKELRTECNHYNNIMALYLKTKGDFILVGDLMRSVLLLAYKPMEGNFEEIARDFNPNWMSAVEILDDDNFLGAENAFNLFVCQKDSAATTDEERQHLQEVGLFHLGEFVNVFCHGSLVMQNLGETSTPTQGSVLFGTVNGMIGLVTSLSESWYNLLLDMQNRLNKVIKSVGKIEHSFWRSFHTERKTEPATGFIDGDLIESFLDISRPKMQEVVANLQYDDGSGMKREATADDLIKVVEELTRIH

| SMILES | CyclinD1 Degradation (200 nM) (cyclin D1) | inhibition at 0.2 µM (CDK4; Calu-1 cells, 200 nM, 16 hours) [%] | inhibition at 0.2 µM (CDK4; Calu-1, 16 h) [%] | CyclinD1 Degradation (10 μM) (cyclin D1; 10 μM) | inhibition at 10 µM (CDK4; Calu-1 cells, 10 μM, 16 hours, read-out: CDK4 Degradation (10 μM)) [%] |
| --- | --- | --- | --- | --- | --- |
| CC(=O)c1c(C)c2cnc(Nc3ccc(N4CCN(CC(=O)NCCOCCOCCOCCNC(=O)COc5ccc(C(=O)Nc6ncc(C)s6)c(C)c5)CC4)cn3)nc2n(C2CCCC2)c1=O [CPD-040, 4-((17-(4-(6-((6-Acetyl-8-cyclopentyl-5-methyl-7-oxo-7,8-dihydropyrido[2,3-d]pyrimidin-2-yl)amino)pyridin-3-yl)piperazin-1-yl)-2,16-dioxo-6,9,12-trioxa-3,15-diazaheptadecyl)oxy)-2-methyl-N-(5-methylthiazol-2-yl)benzamide] | D (protein percentage degradation <30%) | < 30 |  |  |  |
| CC(=O)c1c(C)c2cnc(Nc3ccc(N4CCN(CC(=O)NCCOCCOCCOCCOCCOCCNc5ccc(C(=O)Nc6ncc(C(C)C)s6)c(C)c5)CC4)cn3)nc2n(C2CCCC2)c1=O [CPD-006, 4-((1-(4-(6-((6-Acetyl-8-cyclopentyl-5-methyl-7-oxo-7,8-dihydropyrido[2,3-d]pyrimidin-2-yl)amino)pyridin-3-yl)piperazin-1-yl)-2-oxo-6,9,12,15,18-pentaoxa-3-azaicosan-20-yl)amino)-N-(5-isopropylthiazol-2-yl)-2-methylbenzamide] | D (protein percentage degradation <30%) | < 30 |  |  |  |
| CC(=O)c1c(C)c2cnc(Nc3ccc(N4CCN(CC(=O)NCCCCCCCNc5nc(C)ccc5C(=O)Nc5nc(C)c(C)s5)CC4)cn3)nc2n(C2CCCC2)c1=O [CPD-338, 2-((7-(2-(4-(6-((6-Acetyl-8-cyclopentyl-5-methyl-7-oxo-7,8-dihydropyrido[2,3-d]pyrimidin-2-yl)amino)pyridin-3-yl)piperazin-1-yl)acetamido)heptyl)amino)-N-(4,5-dimethylthiazol-2-yl)-6-methylnicotinamide] | A (protein percentage degradation >=80%) | 50 to 80 |  |  |  |
| CC(=O)c1c(C)c2cnc(Nc3ccc(N4CCN(CC(=O)NCCCCCNC(=O)CNc5ccc(C(=O)Nc6ncc(C)s6)c(C)c5)CC4)cn3)nc2n(C2CCCC2)c1=O [CPD-015, 4-((2-((5-(2-(4-(6-((6-Acetyl-8-cyclopentyl-5-methyl-7-oxo-7,8-dihydropyrido[2,3-d]pyrimidin-2-yl)amino)pyridin-3-yl)piperazin-1-yl)acetamido)pentyl)amino)-2-oxoethyl)amino)-2-methyl-N-(5-methylthiazol-2-yl)benzamide] | D (protein percentage degradation <30%) | < 30 |  |  |  |
| CC(=O)c1c(C)c2cnc(Nc3ccc(N4CCN(C(=O)CCCCCCNc5cccc(C(=O)Nc6nc(C)c(C)s6)c5C)CC4)cn3)nc2n(C2CCCC2)c1=O [CPD-138, 3-((7-(4-(6-((6-Acetyl-8-cyclopentyl-5-methyl-7-oxo-7,8-dihydropyrido[2,3-d]pyrimidin-2-yl)amino)pyridin-3-yl)piperazin-1-yl)-7-oxoheptyl)amino)-N-(4,5-dimethylthiazol-2-yl)-2-methylbenzamide] | D (protein percentage degradation <30%) | < 30 |  |  |  |
| CC(=O)c1c(C)c2cnc(Nc3ccc(N4CCN(CC(=O)NCCOCCOCCC(=O)Nc5cc(C)ccc5C(=O)Nc5nc(C)c(C)s5)CC4)cn3)nc2n(C2CCCC2)c1=O [CPD-149, 2-(3-(2-(2-(2-(4-(6-((6-Acetyl-8-cyclopentyl-5-methyl-7-oxo-7,8-dihydropyrido[2,3-d]pyrimidin-2-yl)amino)pyridin-3-yl)piperazin-1-yl)acetamido)ethoxy)ethoxy)propanamido)-N-(4,5-dimethylthiazol-2-yl)-4-methylbenzamide] | A (protein percentage degradation >=80%) | > 80 |  |  |  |
| CC(=O)c1c(C)c2cnc(Nc3ccc(N4CCN(C(=O)CC(=O)Nc5ccccc5C(=O)Nc5nc(C)c(C)s5)CC4)cn3)nc2n(C2CCCC2)c1=O [CPD-158, 2-(3-(4-(6-((6-Acetyl-8-cyclopentyl-5-methyl-7-oxo-7,8-dihydropyrido[2,3-d]pyrimidin-2-yl)amino)pyridin-3-yl)piperazin-1-yl)-3-oxopropanamido)-N-(4,5-dimethylthiazol-2-yl)benzamide] | D (protein percentage degradation <30%) |  | < 30 |  |  |
| CNc1ccc(C(=O)Nc2ccc(N(C)C)nn2)c(NCCCCCNC(=O)CN2CCN(c3ccc(Nc4ncc5c(C)c(C(C)=O)c(=O)n(C6CCCC6)c5n4)nc3)CC2)c1 [CPD-377, 2-((5-(2-(4-(6-((6-Acetyl-8-cyclopentyl-5-methyl-7-oxo-7,8-dihydropyrido[2,3-d]pyrimidin-2-yl)amino)pyridin-3-yl)piperazin-1-yl)acetamido)pentyl)amino)-N-(6-(dimethylamino)pyridazin-3-yl)-4-(methylamino)benzamide] | A (protein percentage degradation >=80%) | 50 to 80 |  |  |  |
| CC(=O)c1c(C)c2cnc(Nc3ccc(N4CCN(CC(=O)NCCOCCOCCOCCOCCOCCNC(=O)COc5ccc(C(=O)Nc6ncc(C)s6)c(C)c5)CC4)cn3)nc2n(C2CCCC2)c1=O [CPD-019, 4-((23-(4-(6-((6-Acetyl-8-cyclopentyl-5-methyl-7-oxo-7,8-dihydropyrido[2,3-d]pyrimidin-2-yl)amino)pyridin-3-yl)piperazin-1-yl)-2,22-dioxo-6,9,12,15,18-pentaoxa-3,21-diazatricosyl)oxy)-2-methyl-N-(5-methylthiazol-2-yl)benzamide] | D (protein percentage degradation <30%) | < 30 |  |  |  |
| CC(=O)c1c(C)c2cnc(Nc3ccc(N4CCN(C(=O)CCOCCOCCOCCNc5ccc(C)c(C(=O)Nc6nc(C)c(C)s6)c5)CC4)cn3)nc2n(C2CCCC2)c1=O [CPD-111, 5-((2-(2-(2-(3-(4-(6-((6-Acetyl-8-cyclopentyl-5-methyl-7-oxo-7,8-dihydropyrido[2,3-d]pyrimidin-2-yl)amino)pyridin-3-yl)piperazin-1-yl)-3-oxopropoxy)ethoxy)ethoxy)ethyl)amino)-N-(4,5-dimethylthiazol-2-yl)-2-methylbenzamide] | D (protein percentage degradation <30%) |  | < 30 |  |  |
| CC(=O)c1c(C)c2cnc(Nc3ccc(N4CCN(CCCCCOCCOCCNc5cccc(C(=O)Nc6nc(C)c(C)s6)c5C)CC4)cn3)nc2n(C2CCCC2)c1=O [CPD-271, 3-((2-(2-((5-(4-(6-((6-Acetyl-8-cyclopentyl-5-methyl-7-oxo-7,8-dihydropyrido[2,3-d]pyrimidin-2-yl)amino)pyridin-3-yl)piperazin-1-yl)pentyl)oxy)ethoxy)ethyl)amino)-N-(4,5-dimethylthiazol-2-yl)-2-methylbenzamide] | D (protein percentage degradation <30%) |  | < 30 |  |  |
| CC(=O)c1c(C)c2cnc(Nc3ccc(N4CCN(CC(=O)NCCOCCOCCC(=O)Nc5ccccc5C(=O)Nc5nc(C(F)(F)F)c(C)s5)CC4)cn3)nc2n(C2CCCC2)c1=O [CPD-077, 2-(3-(2-(2-(2-(4-(6-((6-Acetyl-8-cyclopentyl-5-methyl-7-oxo-7,8-dihydropyrido[2,3-d]pyrimidin-2-yl)amino)pyridin-3-yl)piperazin-1-yl)acetamido)ethoxy)ethoxy)propanamido)-N-(5-methyl-4-(trifluoromethyl)thiazol-2-yl)benzamide] | D (protein percentage degradation <30%) | 50 to 80 |  |  |  |
| Cc1nc(NC(=O)c2ccccc2NC(=O)CCCCCCNC(=O)CN2CCN(Cc3ccc(Nc4ncc(F)c(-c5cc(F)c6nc(C)n(C(C)C)c6c5)n4)nc3)CC2)sc1C [CPD-277, N-(4,5-Dimethylthiazol-2-yl)-2-(7-(2-(4-((6-((5-fluoro-4-(4-fluoro-1-isopropyl-2-methyl-1H-benzo[d]imidazol-6-yl)pyrimidin-2-yl)amino)pyridin-3-yl)methyl)piperazin-1-yl)acetamido)heptanamido)benzamide] |  |  |  | D (protein percentage degradation < 30%) | < 30 |
| CC(=O)c1c(C)c2cnc(Nc3ccc(N4CCN(CC(=O)NCCCCCNC(=O)c5ccc(C(=O)Nc6ncc(C)s6)c(C)c5)CC4)cn3)nc2n(C2CCCC2)c1=O [CPD-009, N^4-(5-(2-(4-(6-((6-Acetyl-8-cyclopentyl-5-methyl-7-oxo-7,8-dihydropyrido[2,3-d]pyrimidin-2-yl)amino)pyridin-3-yl)piperazin-1-yl)acetamido)pentyl)-2-methyl-N^1-(5-methylthiazol-2-yl)terephthalamide] | D (protein percentage degradation <30%) | < 30 |  |  |  |
| CC(=O)c1c(C)c2cnc(Nc3ccc(N4CCN(CC(=O)NCCOCCOCCOCCOCCOCCOCCC(=O)Nc5ccccc5C(=O)Nc5nc(C)c(C)s5)CC4)cn3)nc2n(C2CCCC2)c1=O [CPD-173, 2-(1-(4-(6-((6-Acetyl-8-cyclopentyl-5-methyl-7-oxo-7,8-dihydropyrido[2,3-d]pyrimidin-2-yl)amino)pyridin-3-yl)piperazin-1-yl)-2-oxo-6,9,12,15,18,21-hexaoxa-3-azatetracosan-24-amido)-N-(4,5-dimethylthiazol-2-yl)benzamide] | A (protein percentage degradation >=80%) | > 80 |  |  |  |
